Reference: PMC7913621 (Molecules, 2021)

Tests used:
glioblastoma U-251 MG = assay: MTT cell viability assay, U-251 MG; type: cell-based, human; details: 72 h, median (95% Confidence Intervals)
Procedure: The following human cell lines were used in this study: (i) epidermoid carcinoma A-431 (ATCC® CRL-1555), (ii) lung carcinoma A549 (ATCC® CCL-185), (iii) colorectal carcinoma HCT116 (ATCC® CCL-247), (iv) HCT116p53^−/−, (v) glioblastoma U-87 MG (ATCC® HTB-14), (vi) glioblastoma U-251 MG (ECACC 09063001), (vii) breast adenocarcinoma MCF7 (ATCC® HTB-22), (viii) breast adenocarcinoma MDA-MB-231 (ECACC 92020424), (ix) papillomavirus-related cervical squamous cell carcinoma SKG-IIIa (RRID:CVCL_1704), (x) cervical adenocarcinoma HeLa (ATCC® CCL-2), (xi) bone osteosarcoma U-2 OS (ATCC® HTB-96), (xii) hepatocellular carcinoma HEPG2 (ATCC® HB-8065), (xiii) larynx squamous cell carcinoma BICR 18 (ECACC 06051601), (ix) kidney HEK 293T (ATCC® CRL-11268), (xv) normal lung fibroblasts MRC-5 (ATCC® CCL-171), (xvi) normal fibroblasts BJ (ATCC® CRL-2522). The HCT116p53^−/− cell line was a kind gift from professor Bert Vogelstein (John Hopkin’s University, Baltimore, MD, USA). […]
The viability of cells was assayed by measuring the conversion of MTT (3-(4,5-dimethylthiazol-2-yl)-2,5-diphenyltetrazolium bromide) to the formazan (the rate of this reaction is proportional to the number of surviving cells). […] Optical densities were measured at 570 nm using a scanning multi-well spectrophotometer ([…] Detection Platform; Beckman Coulter, Brea, CA, USA). […]

glioblastoma U-87 MG = assay: MTT cell viability assay, U-87 MG; type: cell-based, human; details: 72 h, median (95% Confidence Intervals)
Procedure: (§1) The following human cell lines were used in this study: (i) epidermoid carcinoma A-431 (ATCC® CRL-1555), (ii) lung carcinoma A549 (ATCC® CCL-185), (iii) colorectal carcinoma HCT116 (ATCC® CCL-247), (iv) HCT116p53^−/−, (v) glioblastoma U-87 MG (ATCC® HTB-14), (vi) glioblastoma U-251 MG (ECACC 09063001), (vii) breast adenocarcinoma MCF7 (ATCC® HTB-22), (viii) breast adenocarcinoma MDA-MB-231 (ECACC 92020424), (ix) papillomavirus-related cervical squamous cell carcinoma SKG-IIIa (RRID:CVCL_1704), (x) cervical adenocarcinoma HeLa (ATCC® CCL-2), (xi) bone osteosarcoma U-2 OS (ATCC® HTB-96), (xii) hepatocellular carcinoma HEPG2 (ATCC® HB-8065), (xiii) larynx squamous cell carcinoma BICR 18 (ECACC 06051601), (ix) kidney HEK 293T (ATCC® CRL-11268), (xv) normal lung fibroblasts MRC-5 (ATCC® CCL-171), (xvi) normal fibroblasts BJ (ATCC® CRL-2522). The HCT116p53^−/− cell line was a kind gift from professor Bert Vogelstein (John Hopkin’s University, Baltimore, MD, USA). The remaining cell lines were purchased from ATCC (Manassas, VA, USA) or Sigma-Aldrich by Merck (Darmstadt, Germany).
(§2) Cells were cultured in minimal or Dulbecco’s modified Eagle’s or Ham’s F10 medium supplemented with 10% fetal bovine serum (Gibco by Thermo Fisher Scientific, Waltham, MA, USA) and (for BICR 18) 0.4 μg/mL hydrocortizone (Sigma-Aldrich by Merck, Darmstadt, Germany) under standard culture conditions (37 °C, 5% CO2) in a humidified incubator with an atmospheric oxygen.
(§3) The viability of cells was assayed by measuring the conversion of MTT (3-(4,5-dimethylthiazol-2-yl)-2,5-diphenyltetrazolium bromide) to the formazan (the rate of this reaction is proportional to the number of surviving cells). Cells were seeded in a 96-well plate at a density of 2500–3500 cells per well, 24 h before treatment. […] MTT stock solution (Sigma-Aldrich) was added at the final concentration 0.5 mg/mL. After 4 h of incubation at 37 °C, water-insoluble formazan was dissolved in a lysis buffer containing 20% SDS, 50% DMF, 2.5% hydrochloric acid and 2.5% acetic acid. Optical densities were measured at 570 nm using a scanning multi-well spectrophotometer ([…] Detection Platform; Beckman Coulter, Brea, CA, USA). At least three independent experiments of viability were conducted.

[1] = system: breast adenocarcinoma MCF7; assay: MTT cell viability assay, MCF7; type: cell-based, human; details: 72 h, median (95% Confidence Intervals)
Procedure: as §1, §2, §3

[2] = system: cervical squamous cell carcinoma SKG-IIIa; assay: MTT cell viability assay, SKG-IIIa; type: cell-based, human; details: SKGIIIa, 72 h, median (95% Confidence Intervals)
Procedure: as §1, §2, §3

[3] = system: cervical adenocarcinoma HeLa; assay: MTT cell viability assay, HeLa; type: cell-based, human; details: 72 h, median (95% Confidence Intervals)
Procedure: as §1, §2, §3

[4] = system: breast adenocarcinoma MDA-MB-231; assay: MTT cell viability assay, MDA-MB-231; type: cell-based, human; details: MDA-MB-231, MTT, 72 h, median (95% Confidence Intervals)
Procedure: as §1, §2, §3

[5] = system: larynx squamous cell carcinoma BICR 18; assay: MTT cell viability assay, BICR 18; type: cell-based, human; details: BICR 18, MTT, 72 h, median (95% Confidence Intervals)
Procedure: as §1, §2, §3

lung carcinoma A549 = assay: MTT cell viability assay, A549; type: cell-based, human; details: 72 h, median (95% Confidence Intervals)
Procedure: as §1, §2, §3

[6] = system: colorectal carcinoma HCT116; assay: MTT cell viability assay, HCT116; type: cell-based, human; details: median (95% Confidence Intervals)
Procedure: as §1, §2, §3

bone osteosarcoma U-2 OS = assay: MTT cell viability assay, U-2 OS; type: cell-based, human; details: 72 h, median (95% Confidence Intervals)
Procedure: as §1, §2, §3

kidney HEK 293T = assay: MTT cell viability assay, HEK 293T; type: cell-based, human; details: 72 h, median (95% Confidence Intervals)
Procedure: as §1, §2, §3

[7] = system: normal lung fibroblasts MRC-5; assay: MTT cell viability assay, MRC-5; type: cell-based, human; details: MRC-5, MTT, 72 h, median (95% Confidence Intervals)
Procedure: as §1, §2, §3

[8] = system: epidermoid carcinoma A-431; assay: MTT cell viability assay, A-431; type: cell-based, human; details: A-431, MTT, 72 h, median (95% Confidence Intervals)
Procedure: as §1, §2, §3

[9] = system: colorectal carcinoma HCT116p53^−/−; assay: MTT cell viability assay, HCT116p53−/−; type: cell-based, human; details: 72 h, median (95% Confidence Intervals)
Procedure: as §1, §2, §3

[10] = system: hepatocellular carcinoma HEPG2; assay: MTT cell viability assay, HEPG2; type: cell-based, human; details: 72 h, median (95% Confidence Intervals)
Procedure: as §1, §2, §3

normal fibroblasts BJ = assay: MTT cell viability assay, BJ; type: cell-based, human; details: 72 h, median (95% Confidence Intervals)
Procedure: as §1, §2, §3

[11] = system: blood platelet aggregation; assay: platelet aggregation in platelet-rich plasma (light transmittance aggregometry, collagen + DEA-NO); type: cell-based; details: Homo sapiens, 10 μM compound, 500 nM DEA-NO, 2 μg/mL collagen, vs DMSO + DEA-NO
Source text: Nitric oxide is one of the main physiological antiplatelet molecules secreted by vascular endothelium. It stimulates intraplatelet production of cGMP. This secondary messenger is then decomposed in platelets by the activity of two out of three PDE isoforms which are detected in platelets, namely by PDE2 and PDE5, while the other isoform (PDE3) is mostly involved in cAMP hydrolysis. Inhibitors of these phosphodiesterases increase intraplatelet concentration of cGMP and thus potentiate the antiplatelet effect of NO [52]. […]
Multiplate test cells for turbidimetric aggregometry and collagen were purchased from Chronolog Co (Havertown, PA, USA). […] DEA-NO was added to the final concentration of 500 nM, and shortly after, collagen was added to each sample to a final concentration of 2 μg/mL to induce platelet aggregation, which was thereafter monitored for 10 min using an optical aggregometer Chrono-Log 490-2D (Chrono-Log, Havertown, PA, USA). The total area under the aggregation curve (AUC) and the maximal value of platelet aggregation (Amax,U) was recorded. […]
Shortly prior to measurement, 500 nM DEA-NO was added, followed by 2 μg/mL collagen. Percentage of inhibition of platelet response was calculated in comparison to a sample treated with DMSO and DEA-NO on the basis of maximal value of platelet aggregation. […]

PDE5 = details: read-out: earlier reported IC50 values for PDE5; cited from earlier work
[12] = target: T1, recombinant human PDE5A/PDE5 protein (Homo sapiens, UniProt O76074); assay: colorimetric PDE Activity Assay Kit (Abcam), PDE5 inhibition; type: biochemical
T1 construct: purchased Abcam
Procedure: A high concentration of cGMP substrate was used (200 μM) due to the moderate sensitivity of the aforementioned assay.
The inhibitory effect of the tested compounds was measured using colorimetric PDE Activity Assay Kit (Abcam, Cambridge, UK). This assay allows the quantification of 5′-nucleotide released in the reaction catalyzed by tested phosphodiesterase, PDE5, using the additional enzyme 5′-nucleotidase to cleave the mentioned product, and next, using modified Malachite Green assay, the phosphate is quantified. The assay was carried in a 96-well plate at a volume of 40 μL in an assay buffer, containing 40 ng recombinant human PDE5A/PDE5 protein (Abcam), 200 μM cGMP, 25 kU 5′-nucleotidase and serially diluted ligand to preserve 4% of DMSO. The reaction was initiated with the enzyme and kept going for 20 min at 37 °C. The reaction was stopped by adding 80 μL of Green Assay reagent. After incubation at room temperature for 30 min (to develop color proportional to phosphate content), the absorbance at 620 nm was measured with The SpectraMax iD3 Multi-Mode Microplate Reader (Molecular Devices, San Jose, CA, USA). Inhibitors concentrations varied in the range of 2 pM–200 μM. Each experiment was repeated 4–5 times and IC50 values were calculated by global fitting of the sigmoidal dose response equation implemented in Origin 9.0 package (www.originlab.com). For each experiment, control reaction with no enzyme added and without inhibitor was also performed.

Row | SMILES | IC50 (glioblastoma U-87 MG; Homo sapiens) [µM] | IC50 ([1]; Homo sapiens) [µM] | IC50 ([2]; Homo sapiens) [µM] | IC50 ([3]; Homo sapiens) [µM] | IC50 ([4]; Homo sapiens) [µM] | IC50 ([6]; Homo sapiens, HCT-116, 72 h) [µM] | IC50 (bone osteosarcoma U-2 OS; Homo sapiens, U2OS) [µM] | IC50 (kidney HEK 293T; Homo sapiens) [µM] | IC50 ([7]; Homo sapiens, MRC5) [µM] | IC50 ([8]; Homo sapiens) [µM] | IC50 ([9]; Homo sapiens) [µM] | IC50 (normal fibroblasts BJ; Homo sapiens, Fibroblast) [µM] | also measured
1 | N.N.[Cl][Pt][Cl] [Cisplatin, cisplatin, reference compound] | – | – | – | – | – | – | – | – | – | – | – | – | IC50 (glioblastoma U-251 MG): 2.61 µM; IC50 (glioblastoma U-87 MG): 4.96 µM; IC50 [1]: 11 µM; IC50 [2]: 4.84 µM; IC50 [3]: 13.5 µM; IC50 [4]: 22.3 µM; IC50 [5]: 1.69 µM; IC50 (lung carcinoma A549): 27.2 µM; IC50 ([6]; 72 h): 7.44 µM; IC50 (bone osteosarcoma U-2 OS): 7.55 µM; IC50 (kidney HEK 293T): 6.25 µM; IC50 [7]: 3.92 µM; IC50 [8]: 1.51 µM; IC50 [9]: 14.1 µM; IC50 [10]: 7.8 µM; IC50 (normal fibroblasts BJ): 5.58 µM
2 | CN1CC(=O)N2[C@H](c3ccc4c(c3)OCO4)c3[nH]c4ccccc4c3C[C@@H]2C1=O [Tadalafil, reference compound] | 40.7 | 55.3 | 35.1 | 42.3 | 87.6 | 27.2 | 35.1 | 31 | 28.7 | 20.4 | 19.8 | 40.5 | IC50 (glioblastoma U-251 MG; Homo sapiens): 44.1 µM; IC50 ([5]; Homo sapiens): 52.5 µM; inhibition at 10 µM [11]: ~50%; IC50 (lung carcinoma A549; Homo sapiens): 51.5 µM; IC50 (PDE5): […]; IC50 ([10]; Homo sapiens): 46.6 µM
3 | CN1CC(=O)N(Cc2ccc3c(c2)OCO3)[C@@H](Cc2c[nH]c3ccccc23)C1=O [Compound 6b, (S)-3-((1H-indol-3-yl)methyl)-4-(benzo[d][1,3]dioxol-5-ylmethyl)-1-methylpiperazine-2,5-dione] | 151 | 54.1 | 87.6 | 93.5 | 128 | 83.7 | 88.3 | 13 | 127 | 112 | 143 | 143 | IC50 ([12]; 200 μM cGMP, 40 ng enzyme, 20 min at 37 °C, 4% DMSO, read-out: IC50 against human PDE5): 260 ± 210 µM; Ki ([12]; read-out: Ki against human PDE5): 2.6 ± 2.7 µM
